The source of these data is patent US10100077B2, “6-aryl-9-glycosylpurines and use thereof” (UNIVERZITA PALACKEHO V OLOMOUCI, priority 2014, dated 2018).

Data set [1] deals with detached leaf segments of Triticum aestivum cv. Hereward. Briefly: Senescence bioassay on wheat leaf segments (chlorophyll retention). Particulars: for activity (%) [10^−4 mol · l^−1 BAP = 100%]: chlorophyll retention at maximum effective concentration, 96 h dark; for maximum effective concentration: 96 h in the dark at 25° C. As to the method: Seeds of winter wheat, Triticum aestivum cv. Hereward, were washed under running water for 24 hours and then sown on vermiculite soaked with Knop's solution. They were placed in the growth chamber at 25° C. with a 16/8 h light period at 50 μmol·m^−2·s^−1. After 7 days, the first leaf was fully developed and the second leaf had started to grow. A tip section of the first leaf, approximately 35 mm long, was removed from 5 seedlings and trimmed slightly to a combined weight of 100 mg. The basal ends of the five leaf tips were placed in the wells of a microtiter polystyrene plate containing 150 μL, of the tested derivative solution each. The entire plate was inserted into a plastic box lined with paper tissues soaked in distilled water to prevent leaf sections from drying out. After 96 h incubation in the dark at 25° C., the leaves were removed and chlorophyll extracted by heating at 80° C. for 10 min in 5 mL of 80% ethanol (v/v). The sample volume was then restored to 5 mL by the addition of 80% ethanol (v/v). The absorbance of the extract was recorded at 665 nm. In addition, chlorophyll extracts from fresh leaves and leaf tips incubated in deionised water were measured. The results are means of five replicates and the entire test was repeated twice. […] The compounds to be tested were dissolved in dimethylsulfoxide (DMSO) and the solution brought up to 10^−3M with distilled water. This stock solution was further diluted with the respective media used for the biotest to a concentration ranging from 10^−8M to 10^−4M. […] The activity obtained for 10^−4 M of BAP was postulated as 100%.

Data set [2] deals with skin fibroblasts BJ and keratinocytes HaCaT. Briefly: MTT in vitro cytotoxicity test for skin cells. In kind it is cell-based. Particulars: for IC50: MTT, 72 hour treatment, BJ and HaCaT, maximal concentration 50 microM. As to the method: MTT assay is a standard test of toxicity based on photometric measurement of the ability of metabolically active cells to reduce MTT (3-(4,5-dimethylthiazol-2-yl)-2,5-diphenyltetrazolium bromide). Using the assay, the effects of 72 hour treatments with several concentrations of the compounds (sixfold dilution, maximal concentration=50 microM) on viability of skin fibroblasts BJ and keratinocytes HaCaT were evaluated. About 5,000 cells were seeded per well of a 96-well plate 24 hours before the treatment. DMSO vehiculum was used as a negative control. After 72 hour treatment, new medium with MTT (Sigma, M2128) was added to a final concentration of 0.5 mg/ml. After 3 hours, medium was removed and resulting formazan in the cells was dissolved in DMSO. The absorbance was measured at 570 nm (640 nm reference wavelength). The IC50 values were calculated from the dose-response curves. 6-Benzylaminopurine riboside and 6-furfurylaminopurine riboside were used as positive controls they were toxic in the MTT test.

Data set [3] has the same test system. Briefly: SRB in vitro toxicity test. Particulars: 72 hour treatment, maximal concentration 50 microM. In kind it is cell-based. The protocol:
SRB (sulforhodamine B) assay is a standard toxicity test based on a photometric measurement of the cellular protein content after the staining with sulphorhodamine B. Using the assay, the effects of 72 hour treatments with several concentrations of the compounds (sixfold dilution, maximal concentration=50 microM) on viability of skin fibroblasts BJ and keratinocytes HaCaT were evaluated. About 5,000 cells were seeded per well of a 96-well plate 24 hours before the treatment. DMSO vehiculum was used as a negative non-toxic control. 6-benzylaminopurine riboside a 6-furfurylaminopurin riboside were used as positive toxic controls. After three days the medium was removed and the cells fixed with 10% (wt/vol) trichloroacetic acid. After the extensive washing in distilled water, 0.4% (wt/vol) solution of SRB in acetic acid was added and the fixed cells were stained for 30 minutes. The unbound stain was washed away by distilled water and the bound SRB was solubilized in unbuffered 10 mM Tris base. Absorbance was measured at 564 nm. IC50 values were calculated from dose-response curves.

The test system of a further data set is breast cancer (MCF-7). Briefly: Calcein AM cytotoxicity assay, MCF-7. In kind it is cell-based. Particulars: 72 hrs. An excerpt:
(§1) One of the parameters used as the base for cytotoxic analysis is metabolic activity of viable cells, such as microtiter assay, which uses the Calcein AM, is now widely used to quantitate cell proliferation and cytotoxicity. The quantity of reduced Calcein AM corresponds to the number of viable cells in culture. The cell lines of breast cancer (MCF-7), mousse fibroblasts (NIH3T3), human erythromleukemia (K562) were used for routine screening of cytotoxicity of the compounds. The cells were maintened in Nunc/Corning 80 cm^2 plastic bottles and grown in media for cell culture (DMEM containing 5 g/l of glucose, 2 mM of glutamin, 100 U/ml of penicilin, […] of streptomycin, 10% of fetal bovine serum and sodium hydrogencarbonate). Cell suspensions were diluted according to cell types and according to expected final cell density (10^4 of cells per well according to characteristics of cell growth), pipetted 80 μl of cell suspension on 96-well microtiter plates. Innoculates were stabilized by 24 hrs preincubation at 37° C. in CO2. Particular concentrations of tested compounds were added in time zero as 20 μl aliquotto wells of microtiter plates. Usually, the compounds were diluted into six concentrations in four-fold dilution series. In routine testing, the highest well concentration was 166.7 μM, of change dependent on the substance. All drug concentrations were examined in duplicates. The incubation of cells with tested derivatives lasted 72 hrs at 37° C., 100% humidity and in the atmosphere of CO2. At the end of the incubation period, the cells were tested and analysed according to the addition of Calcein AM (Molecular probes) solution and the incubation lasted for next 1 hour. Fluorescence (FD) was measured using Labsystem FIA reader Fluorskan Ascent (Microsystems). The survival of tumor cells (The tumor cell survival-TCS) was counted according to equation: […]=(FDwell with derivative/FDcontrol well)×100%. The value of GI50, that is equal to the concentration of compound at which 50% of tumour cells are terminated. To evaluate the antitumor activity was tested toxicity of new derivatives on panel of cell lines of different histogenetic and species origin (Tab. 7, G150 concentration given in μM). […] Effective derivatives killed tumor cells in concentrations close to 0.1 to 50. None of the newly prepared compounds only reached the value.

The subject of data set [4] is human erythromleukemia (K562). Briefly: Calcein AM cytotoxicity assay, K562. In kind it is cell-based. Particulars: 72 hrs.
Excerpt: as §1

Data set [5] concerns mousse fibroblasts (NIH3T3). Put plainly: Calcein AM cytotoxicity assay, NIH3T3. In kind it is cell-based, mouse. Particulars: 72 hrs.
Excerpt: as §1

As to `OC[C@H]1O[C@@H](n2cnc3c(NCc4ccc(Br)cc4)ncnc32)[C@@H](O)[C@@H]1O` [6-(4-bromobenzylamino)-9-β-D-arabinofuranosylpurine], the “activity (%) [10^−4 mol · l^−1 BAP = 100%]” value (from here on “activity (%)”) in data set [1] was determined as 176 ± 11%.
What is called IC50 is the concentration that inhibits the measured activity by half. A low value points to higher potency. Take `OC[C@H]1O[C@@H](n2cnc3c(NCc4ccccc4O)ncnc32)C[C@@H]1O` [6-(2-hydroxybenzylamino)-9-β-D-2′-deoxyribofuranosylpurine]: the IC50 in data set [2] and in data set [3] was > 50 µM throughout.
For orientation: GI50 means the concentration at which growth is held to half of that of the control. `Cc1ccc(CNc2ncnc3c2ncn3[C@@H]2O[C@H](CO)[C@@H](O)[C@@H]2O)cc1` [4-methylbenzylamino-9-β-D-arabinofuranosylpurine]: the 50% growth inhibitory concentration (GI50) was 95 µM in the data set on breast cancer (MCF-7), > 100 µM in data set [4] and > 100 µM in data set [5].
With `OC[C@H]1O[C@@H](n2cnc3c(NCc4ccccc4Br)ncnc32)[C@@H](O)[C@@H]1O` [6-(2-bromobenzylamino)-9-β-D-arabinofuranosylpurine], the “activity (%)” value in data set [1] was found to be 186 ± 19%.
For `COc1ccc(CNc2ncnc3c2ncn3[C@@H]2O[C@H](CO)[C@@H](O)[C@H]2O)cc1OC` [6-(3,4-dimethoxybenzylamino)-9-riboside, reference compound], in data set [1], the maximum effective concentration is recorded as 10^−4 mol · l^−1 and the “activity (%)” value was 47 ± 6%.
Turning to “2,4-dimethoxybenzylamino-9-β-D-arabinofuranosylpurine”, the values for the 50% growth inhibitory concentration (GI50) (with breast cancer (MCF-7); in data set [4]; in data set [5]) were 98 µM, > 100 µM and > 100 µM, respectively.
Regarding `OC[C@H]1O[C@@H](n2cnc3c(NCc4cccc(I)c4)ncnc32)[C@H](O)[C@@H]1O` [6-(3-iodobenzylamino)-9-riboside, reference compound], in data set [1], the maximum effective concentration is 10^−4 mol · l^−1 and the “activity (%)” value is recorded as 58 ± 19%.
On to `OC[C@H]1O[C@@H](n2cnc3c(NCc4cccc(O)c4)ncnc32)[C@@H](O)[C@@H]1O` [6-(3-hydroxybenzylamino)-9-β-D-arabinofuranosylpurine], for which the half-maximal inhibitory concentration (IC50) in data set [2] (Homo sapiens) and in data set [3] (Homo sapiens) was > 50 µM throughout.
Consider `OC[C@H]1O[C@@H](n2cnc3c(NCc4ccc(Cl)cc4)ncnc32)[C@@H](O)[C@@H]1O` [4-chlorobenzylamino-9-β-D-arabinofuranosylpurine], for which the GI50 (with breast cancer (MCF-7); in data set [4]; in data set [5]) was > 100 µM each time.
In the case of `OC[C@H]1O[C@@H](n2cnc3c(NCc4ccccc4Cl)ncnc32)[C@@H](O)[C@@H]1O` [6-(2-chlorobenzylamino)-9-β-D-arabinofuranosylpurine], the IC50 in data set [2] (Homo sapiens) and in data set [3] (Homo sapiens) was > 50 µM in each case.
Turning to `OC[C@H]1O[C@@H](n2cnc3c(NCc4cccc(F)c4)ncnc32)C[C@@H]1O` [3-fluorobenzylamino-9-β-D-2′-deoxyribosylpurine], the GI50 (with breast cancer (MCF-7); in data set [4]; in data set [5]) was > 100 µM each time.
Turning to `OC[C@H]1O[C@@H](n2cnc3c(NCc4ccco4)ncnc32)C[C@@H]1O` [6-(furfurylamino)-9-β-D-2′-deoxyribofuranosylpurine], the concentration for half-maximal inhibition (IC50) in data set [2] and in data set [3] was > 50 µM in each case.
Take `Nc1cccc(CNc2ncnc3c2ncn3[C@@H]2O[C@H](CO)[C@@H](O)[C@@H]2O)c1` [6-(3-aminobenzylamino)-9-β-D-arabinofuranosylpurine]: the IC50 in data set [2] (Homo sapiens) and in data set [3] (Homo sapiens) was > 50 µM throughout.
For the compound `COc1ccc(CNc2ncnc3c2ncn3[C@@H]2O[C@H](CO)[C@@H](O)[C@@H]2O)c(OC)c1OC` [6-(2,3,4-trimethoxybenzylamino)-9-β-D-arabinofuranosylpurine], the IC50 is 48 µM in data set [2] (Homo sapiens) and > 50 µM in data set [3] (Homo sapiens).
`OC[C@H]1O[C@@H](n2cnc3c(NCc4cccc(Br)c4)ncnc32)[C@@H](O)[C@@H]1O` [6-(3-bromobenzylamino)-9-β-D-arabinofuranosylpurine]: the “activity (%)” value in data set [1] is on record as 198 ± 10%.
Consider `OC[C@H]1O[C@@H](n2cnc3c(NCc4ccc(Cl)cc4Cl)ncnc32)[C@H](O)[C@@H]1O` [6-(2,4-dichlorbenzylamino)-9-riboside, reference compound], for which, in data set [1], the maximum effective concentration is 10^−4 mol · l^−1 and the “activity (%)” value worked out at 5 ± 1%.
With `OC[C@H]1O[C@@H](n2cnc3c(NCc4cccc(I)c4)ncnc32)[C@@H](O)[C@@H]1O` [6-(3-iodobenzylamino)-9-β-D-arabinofuranosylpurine], the IC50 in data set [2] (Homo sapiens) and in data set [3] (Homo sapiens) was > 50 µM each time. Further, the “activity (%)” value in data set [1] is on record as 198 ± 4%.
Regarding `COc1cccc(CNc2ncnc3c2ncn3[C@@H]2O[C@H](CO)[C@@H](O)[C@@H]2O)c1OC` [6-(2,3-dimethoxybenzylamino)-9-β-D-arabinofuranosylpurine], the values for the IC50 in data set [2] (Homo sapiens) and in data set [3] (Homo sapiens) were 49 µM and > 50 µM, respectively.
With `OC[C@H]1O[C@@H](n2cnc3c(NCc4cccc(Br)c4)ncnc32)[C@H](O)[C@@H]1O` [6-(3-bromobenzylamino)-9-riboside, reference compound], in data set [1], the maximum effective concentration is on record as 10^−4 mol · l^−1 and the “activity (%)” value was determined as 89 ± 10%.
On to `OC[C@H]1OC(n2cnc3c(NCc4ccco4)ncnc32)[C@H](O)[C@@H]1O` (stereo partly shown) [6-furfurylamino-9-ribosylpurine, reference compound], for which the IC50 in data set [2] (Homo sapiens) and in data set [3] (Homo sapiens) was ≤ 3 µM in each case. The “toxicity in the MTT test” value in data set [2] (positive controls) was “toxic”.
`OC[C@H]1O[C@@H](n2cnc3c(NCc4cccc(Cl)c4)ncnc32)[C@H](O)[C@@H]1O` [6-(3-chlorobenzylamino)-9-riboside, reference compound]: in data set [1], the maximum effective concentration is on record as 10^−4 mol · l^−1 and the “activity (%)” value stood at 72 ± 8%.
Turning to `COc1ccc(CNc2ncnc3c2ncn3[C@@H]2O[C@H](CO)[C@@H](O)[C@@H]2O)cc1OC` [6-(3,4-dimethoxybenzylamino)-9-β-D-arabinofuranosylpurine], in data set [1], the “activity (%)” value is 147 ± 6%.
